From US9464045B2, “Process for the preparation of methionine” (EVONIK DEGUSSA GmbH, priority 2012, dated 2016)

Assay: Recrystallization of methionine in the presence of additives (procedure of Example 1): amount of foam and bulk density
Format: physicochemical
Conditions: bulk density of dried methionine; additive concentration 400 ppm
Description: 60 g of methionine, 305 g of water and 35 g of crude methionine filtrate were introduced into a flask and circulated via a heat exchanger by pumping at a temperature of 40° C. As a result of the potassium carbonate present in the crude methionine filtrate, the potassium ion concentration was ca. 7 g/kg. A solution, heated to 90° C., of 150 g of methionine in 990.5 ml of water and 109.5 g of crude methionine filtrate was added to this suspension at a rate of 18 ml/min, during which the temperature of the initial charge of suspension was kept at 40° C. After adding 650 ml of the hot solution, 500 ml of suspension were removed and then a further 500 ml of the hot solution were metered in at a rate of 18 ml/min. The resulting suspension was discharged, the amount of foam was determined, and the methionine was filtered off and washed with 300 ml of acetone. After drying the methionine, the bulk density was determined.
The recrystallization experiments were carried out in the presence of the following additives, the stated concentration being established by adding the additive to both starting solutions/suspensions. The concentration data give the total active ingredient content of the additive without water based on the total mass of the solution or suspension. Additive 1 was an aqueous mixture of antifoam and crystallization additive according to EP […] […]

Bulk density: 616 g/L
Substance: polyethoxylated (20 EO) sorbitan tristearate [Additive 24]
